Tests used:
virus H1N1 A/Weiss/43 = experiment: microbe, parasite or virus in culture; assay type: cell-based; settings: Influenza A virus, H1N1, 120 h; MDCK cells, CPE, 5 days, CCK-8; read-out: EC50, inhibitory activity against influenza virus (A/Weiss/43(H1N1))
in vivo = settings: SD, rat
Protocol: The compounds disclosed herein were administered in form of a saline solution containing 5% DMSO, 5% Kolliphor HS 15 and 90% Saline. For intravenous administration (iv), the animals were administered with a dose of 1 mg/kg, and blood samples (0.3 mL) were collected at the time points of 0.083, 0.25, 0.5, 1.0, 2.0, 5.0, 7.0 and 24 h after drug administration, then each blood sample was processed to separate plasma by centrifugation at 3000 rpm or 4000 rpm for 10 minutes. For oral administration (po), the animals were administered with a dose of 5 mg/kg, and blood samples (0.3 mL) were collected at the time points of 0.25, 0.5, 1.0, 2.0, 5.0, 7.0 and 24 h after drug administration, then each blood sample was processed to separate plasma by centrifugation at 3000 rpm or 4000 rpm for 10 minutes. Plasma samples were collected and stored at −20° C. or −70° C. until LC/MS/MS analysis.

SMILES | EC50 (virus H1N1 A/Weiss/43) [nM] | AUC(0-inf) (in vivo; iv, 1 mg/kg) [ng·h/mL] | AUC(0-t) (in vivo; iv, 1 mg/kg) [ng·h/mL] | clearance (in vivo; iv, 1 mg/kg) [mL/min/kg] | AUC(0-inf) (in vivo; po, 5 mg/kg) [ng·h/mL] | AUC(0-t) (in vivo; po, 5 mg/kg) [ng·h/mL]
O=C(O)C1C2CCC(CC2)C1Nc1cc(-c2ccco2)nc(-c2c[nH]c3ncc(Cl)nc23)n1 (racemic) [Example 1, (+/−)-trans-3-((2-(2-chloro-5H-pyrrolo[2,3-b]pyrazin-7-yl)-6-(furan-2-yl)pyrimidin-4-yl)amino)bicyclo[2.2.2]octane-2-carboxylic Acid] | 3.89 | – | – | – | – | –
O=C(O)C1C2CCC(CC2)C1Nc1nc(-c2c[nH]c3ncc(Cl)nc23)nc(-c2ccco2)c1F (racemic) [Example 3, (+/−)-trans-3-((2-(2-chloro-5H-pyrrolo[2,3-b]pyrazin-7-yl)-5-fluoro-6-(furan-2-yl)pyrimidin-4-yl)amino)bicyclo[2.2.2]octane-2-carboxylic Acid] | 0.672 | – | – | – | – | –
O=C(O)C1C2CCC(CC2)C1Nc1nc(-c2c[nH]c3ncc(Cl)nc23)nc(-c2ccccc2)c1F (racemic) [Example 4, (+/−)-trans-3-((2-(2-chloro-5H-pyrrolo[2,3-b]pyrazin-7-yl)-5-fluoro-6-phenylpyrimidin-4-yl)amino)bicyclo[2.2.2]octane-2-carboxylic Acid] | 0.116 | – | – | – | – | –
Cn1cc(-c2nc(-c3c[nH]c4ncc(Cl)nc34)nc(NC3C4CCC(CC4)C3C(=O)O)c2F)cn1 (racemic) [Example 5, (+/−)-trans-3-((2-(2-chloro-5H-pyrrolo[2,3-b]pyrazin-7-yl)-5-fluoro-6-(1-methyl-1H-pyrazol-4-yl)pyrimidin-4-yl)amino)bicyclo[2.2.2]octane-2-carboxylic Acid] | 3.52 | – | – | – | – | –
O=C(O)C1C2CCC(CC2)C1Nc1nc(-c2c[nH]c3ncc(Cl)nc23)nc(-c2cc3ccccc3o2)c1F (racemic) [Example 6, (+/−)-trans-3-((6-(benzofuran-2-yl)-2-(2-chloro-5H-pyrrolo[2,3-b]pyrazin-7-yl)-5-fluoropyrimidin-4-yl)amino)bicyclo[2.2.2]octane-2-carboxylic Acid] | 0.398 | – | – | – | – | –
O=C(O)C1C2CCC(CC2)C1Nc1cc(-c2ccccc2)nc(-c2c[nH]c3ncc(Cl)nc23)n1 (racemic) [Example 12, (+/−)-trans-3-((2-(2-chloro-5H-pyrrolo[2,3-b]pyrazin-7-yl)-6-phenylpyrimidin-4-yl)amino)bicyclo[2.2.2]octane-2-carboxylic Acid] | 2.54 | – | – | – | – | –
O=C(O)[C@H]1C2CCC(CC2)[C@@H]1Nc1nc(-c2c[nH]c3ncc(Cl)nc23)nc(-c2cc3ccccc3s2)c1F [Example 7a, (2S,3S)-3-((6-(benzo[b]thiophen-2-yl)-2-(2-chloro-5H-pyrrolo[2,3-b]pyrazin-7-yl)-5-fluoropyrimidin-4-yl)amino)bicyclo[2.2.2]octane-2-carboxylic Acid] | – | 3260 | 3220 | 85.2 | 9950 | 9840
O=C(O)[C@H]1C2CCC(CC2)[C@@H]1Nc1cc(-c2cc3ccccc3s2)nc(-c2c[nH]c3ncc(Cl)nc23)n1 [Example 15, (2S,3S)-3-((6-(benzo[b]thiophen-2-yl)-2-(2-chloro-5H-pyrrolo[2,3-b]pyrazin-7-yl)pyrimidin-4-yl)amino)bicyclo[2.2.2]octane-2-carboxylic Acid] | 0.76 | – | – | – | – | –
O=C(O)[C@H]1C2CCC(CC2)[C@@H]1Nc1nc(-c2c[nH]c3nc(Cl)cnc23)nc(-c2cccs2)c1F [Example 53, (2S,3S)-3-((2-(3-chloro-5H-pyrrolo[2,3-b]pyrazin-7-yl)-5-fluoro-6-(thiophen-2-yl)pyrimidin-4-yl)amino)bicyclo[2.2.2]octane-2-carboxylic Acid] | – | 3740 | 3670 | 74.2 | 18000 | 17700
O=C(O)[C@H]1C2CCC(CC2)[C@@H]1Nc1nc(-c2c[nH]c3ncc(Cl)nc23)nc2c1ccn2C(CF)CF [Example 65, (2S,3S)-3-((2-(2-chloro-5H-pyrrolo[2,3-b]pyrazin-7-yl)-7-(1,3-difluoropropan-2-yl)-7H-pyrrolo[2,3-d]pyrimidin-4-yl)amino)bicyclo[2.2.2]octane-2-carboxylic Acid] | – | 2390 | 2370 | 121 | 6170 | 6150
